The values below come from patent publication US20250170266A1 (ZYMEWORKS BC INC., priority 2022, published 2025).

As usually defined, the EC50 is the concentration that produces a half-maximal response.

Like-named read-outs stand apart in the source and are kept apart here. Some results are limits rather than exact numbers.

Type in all cases: cell-based
The test system of assay [1] is Mouse splenocytes. Description: Mouse Splenocyte Assay, cytokine release (HTRF). As to conditions: Splenocyte, 24 hours, mIL6 in supernatant, read-out: Splenocyte IL6 EC50. Here is the method:
Mouse splenocytes were isolated from fresh mouse spleens. Briefly, spleens were harvested from female balb/c nude mice and transferred to a 70 μm cell strainer. The cell strainer was subsequently placed in a 6-well suspension culture plate containing 5 mL media (RPMI+10% FBS). The spleens were crushed against the cell strainer using the flat end of a 10 mL syringe plunger and the cell strainer was washed with 5 mL media. The cell strainer was discarded, and the cell suspension was washed in PBS. Red blood cells were removed using PharmaLyse (BD). The cell suspension was washed in media, resuspended in CryoStor® CS10 ([…]) and frozen. On assay day, mouse splenocytes were thawed in warm assay buffer (RPMI+10% FBS). Cells were spun down and resuspended in fresh assay buffer. 100,000 cells were added to each well of plates containing test compound. For test compound preparation, each compound was initially diluted to 1 mM in DMSO and further diluted in assay buffer. A 4-fold 11-point titration starting from 15 μM was performed. Cells were incubated with test compound at 37° C.+5% CO2 for 24 hours before supernatant was harvested. Murine IL6 (mIL6) and murine TNFα (mTNFα) were quantified in the supernatant using homogeneous time resolved fluorescence (Cisbio).
Each assay included a positive control compound (referred to herein as “benchmark,” see, e.g., TABLE 3 below, and taken from International Patent Publication No. WO2017/072662, structure shown below) and a negative control (growth medium). […] The structure of the benchmark compound from International Patent Publication No. WO 2017/072662 is as follows: […]
(In general: In TR-FRET formats the signal depends on donor and acceptor labels being close together.)

Assay [2] concerns Human peripheral blood mononuclear cells (PBMCs). Description: Human PBMC Assay, cytokine release (HTRF). The conditions noted are these: PBMC, 24 hours. The essentials: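 Cryopreserved human PBMCs, rested overnight with 10 ng/ml hIL3, then 300,000 cells/well treated 24 h at 37° C with compound (4-fold, 11-point titration from 15 μM) in RPMI+10% FBS. Supernatant hIL6, hTNFα and hIFNα measured by HTRF; growth medium as negative control.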

The target in assay [3] is T1, mTLR7 (Mus musculus, UniProt P58681).
T1 construct: host or cells: HEK-Blue mTLR7 reporter cells (HEK293-derived, own knowledge)
T1 sequence (P58681 27-1050): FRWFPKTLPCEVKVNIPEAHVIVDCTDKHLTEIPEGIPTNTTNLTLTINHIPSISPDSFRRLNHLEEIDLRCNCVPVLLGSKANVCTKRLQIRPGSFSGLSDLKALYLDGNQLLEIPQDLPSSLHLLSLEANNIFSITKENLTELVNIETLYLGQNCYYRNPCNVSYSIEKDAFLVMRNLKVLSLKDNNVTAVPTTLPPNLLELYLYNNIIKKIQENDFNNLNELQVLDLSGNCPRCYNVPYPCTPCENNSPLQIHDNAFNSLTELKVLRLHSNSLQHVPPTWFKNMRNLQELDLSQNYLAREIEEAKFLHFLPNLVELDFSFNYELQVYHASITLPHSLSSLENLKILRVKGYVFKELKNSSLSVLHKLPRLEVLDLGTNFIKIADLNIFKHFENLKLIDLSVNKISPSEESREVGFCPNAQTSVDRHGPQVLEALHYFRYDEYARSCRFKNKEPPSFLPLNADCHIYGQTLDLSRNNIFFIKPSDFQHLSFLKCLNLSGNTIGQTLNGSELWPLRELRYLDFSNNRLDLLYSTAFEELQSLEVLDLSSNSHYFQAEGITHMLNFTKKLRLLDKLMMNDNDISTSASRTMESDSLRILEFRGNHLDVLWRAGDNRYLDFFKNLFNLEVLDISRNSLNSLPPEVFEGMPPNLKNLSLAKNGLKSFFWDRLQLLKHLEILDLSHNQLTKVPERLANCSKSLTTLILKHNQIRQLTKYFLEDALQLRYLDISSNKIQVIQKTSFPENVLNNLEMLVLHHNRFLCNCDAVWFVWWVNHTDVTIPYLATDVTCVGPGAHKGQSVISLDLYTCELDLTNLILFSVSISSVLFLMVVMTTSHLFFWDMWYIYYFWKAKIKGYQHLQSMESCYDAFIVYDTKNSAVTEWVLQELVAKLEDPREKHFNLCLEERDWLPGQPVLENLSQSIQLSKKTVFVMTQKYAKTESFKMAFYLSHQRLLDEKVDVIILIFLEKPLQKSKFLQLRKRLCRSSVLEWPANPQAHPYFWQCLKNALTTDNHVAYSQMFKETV
Description: Reporter Gene Assay (RGA), HEK-Blue mTLR7 reporter cells, SEAP readout. As to conditions: overnight incubation, SEAP absorbance 620 nm. The essentials:
(§1)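 HEK-Blue reporter cells expressing human or mouse TLR7 (1.5×10^4 cells) were treated with an 11-point, 4-fold compound titration from 15 pM in HEK-Blue Detection medium. Incubation was overnight at 37° C with 5% CO2. Secreted embryonic alkaline phosphatase was read as absorbance at 620 nm.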
In general terms: In a reporter assay the amount or activity of a reporter protein is the signal.

Assay [4] deals with T2, hTLR7 (Homo sapiens, UniProt Q9NYK1).
T2 construct: host or cells: HEK-Blue hTLR7 reporter cells (HEK293-derived, own knowledge)
T2 sequence (Q9NYK1 27-1049): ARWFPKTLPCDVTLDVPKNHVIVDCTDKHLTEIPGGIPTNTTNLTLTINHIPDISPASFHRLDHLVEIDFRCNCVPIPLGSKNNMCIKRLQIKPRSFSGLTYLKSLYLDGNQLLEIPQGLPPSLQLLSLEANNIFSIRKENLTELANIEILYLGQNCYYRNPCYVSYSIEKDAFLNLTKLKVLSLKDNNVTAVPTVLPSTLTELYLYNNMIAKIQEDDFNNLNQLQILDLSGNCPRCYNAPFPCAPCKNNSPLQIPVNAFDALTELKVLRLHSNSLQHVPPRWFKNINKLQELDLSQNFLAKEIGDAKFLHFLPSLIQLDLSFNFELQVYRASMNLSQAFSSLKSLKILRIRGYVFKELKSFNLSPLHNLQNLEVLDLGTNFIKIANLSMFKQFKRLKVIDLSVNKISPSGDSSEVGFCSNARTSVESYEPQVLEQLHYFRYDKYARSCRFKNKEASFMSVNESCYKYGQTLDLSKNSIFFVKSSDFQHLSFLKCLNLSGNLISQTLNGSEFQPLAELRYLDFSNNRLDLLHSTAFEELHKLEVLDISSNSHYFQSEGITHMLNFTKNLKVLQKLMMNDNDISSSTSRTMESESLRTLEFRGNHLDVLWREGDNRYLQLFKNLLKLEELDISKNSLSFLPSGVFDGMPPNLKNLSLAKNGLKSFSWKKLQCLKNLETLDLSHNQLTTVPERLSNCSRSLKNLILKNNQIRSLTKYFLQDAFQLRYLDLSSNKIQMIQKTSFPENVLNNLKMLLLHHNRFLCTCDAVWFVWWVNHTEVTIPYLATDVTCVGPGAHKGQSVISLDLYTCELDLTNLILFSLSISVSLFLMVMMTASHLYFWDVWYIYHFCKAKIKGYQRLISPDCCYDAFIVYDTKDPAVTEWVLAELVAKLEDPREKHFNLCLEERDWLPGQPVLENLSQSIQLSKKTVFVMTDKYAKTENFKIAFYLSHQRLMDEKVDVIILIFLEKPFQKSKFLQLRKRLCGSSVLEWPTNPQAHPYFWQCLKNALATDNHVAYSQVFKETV
Description: Reporter Gene Assay (RGA), HEK-Blue hTLR7 reporter cells, SEAP readout. The conditions noted are these: overnight incubation, SEAP absorbance 620 nm. The procedure, abridged:
as §1

The mark [5] stands for this setting: hIFNα in supernatant, EC50 values approximated and divided into groups, read-out: PBMC IFNa EC50.
[6] abbreviates: hIL6 in supernatant, read-out: PBMC IL6 EC50.

Regarding `CCOc1nc(N)c2nc(O)n(Cc3ccc(CNCCC(=O)N[C@@H](Cc4c[nH]cn4)C(=O)O)cc3OC)c2n1` [Compound 116, (3-((4-((6-amino-2-ethoxy-8-hydroxy-9H-purin-9-yl)methyl)-3-methoxybenzyl)-amino)-propanoyl)-L-histidine], the EC50 in assay [1] is 2180 nM; in assay [2] (setting [5]), > 10 nM; in assay [2] (setting [6]), 3080 nM; in assay [3] it was 1020 nM; in assay [4], 184 nM.
In the same order, the values of `CCOc1nc(N)c2nc(O)n(Cc3ccc(CN[C@H](CO)Cc4ccccc4)cc3OC)c2n1` [Compound 118, (S)-6-amino-2-ethoxy-9-(4-(((1-hydroxy-3-phenylpropan-2-yl)amino)methyl)-2-methoxybenzyl)-9H-purin-8-ol] are 639 nM, 0.1 to 1 nM, 1400 nM, 11.4 nM and 2.04 nM.
For the compound `CCOc1nc(N)c2nc(O)n(Cc3ccc(CN[C@@H](CO)C(=O)O)cc3OC)c2n1` [Compound 119, (4-((6-amino-2-ethoxy-8-hydroxy-9H-purin-9-yl)methyl)-3-methoxybenzyl)-L-serine], the EC50 in assay [1] is ≥ 1000 nM; in assay [2] (setting [5]), > 10 nM; in assay [2] (setting [6]), 3910 nM; in assay [3], 1960 nM; in assay [4] it was 259 nM.
The corresponding values for `CCOc1nc(N)c2nc(O)n(Cc3ccc(CN(CC(=O)O)CC(=O)O)cc3OC)c2n1` [Compound 120, 2,2′-((4-((6-amino-2-ethoxy-8-hydroxy-9H-purin-9-yl)methyl)-3-methoxy-benzyl)azanediyl) diacetic Acid] are 881 nM, > 10 nM, 524 nM, 637 nM and 33.2 nM.
In the same order, the values of `CCOc1nc(N)c2nc(O)n(Cc3ccc(CN[C@H](C(=O)O)[C@@H](C)CC)cc3OC)c2n1` [Compound 121, (4-((6-amino-2-ethoxy-8-hydroxy-9H-purin-9-yl)methyl)-3-methoxybenzyl)-L-isoleucine] are ≥ 1000 nM, > 10 nM, 13300 nM, 772 nM and 343 nM.
The corresponding values for `CCOc1nc(N)c2nc(O)n(Cc3ccc(CN[C@H](CO)[C@@H](C)CC)cc3OC)c2n1` [Compound 122, 6-amino-2-ethoxy-9-(4-((((2S,3S)-1-hydroxy-3-methylpentan-2-yl)amino)-methyl)-2-methoxybenzyl)-9H-purin-8-ol] are 66.1 nM, 0.1 to 1 nM, 279 nM, 10.2 nM and 9 nM.
For `CCOc1nc(N)c2nc(O)n(Cc3ccc(CN)cc3OC)c2n1` [Compound 123, 6-amino-9-(4-(aminomethyl)-2-methoxybenzyl)-2-ethoxy-9H-purin-8-ol], the EC50 in assay [1] was 145 nM; in assay [2] (setting [5]), 1 to 10 nM; in assay [2] (setting [6]), 684 nM; in assay [3] it was 146 nM; in assay [4], 30.7 nM.
For `CCNCc1ccc(Cn2c(O)nc3c(N)nc(OCC)nc32)c(OC)c1` [Compound 124, 6-amino-2-ethoxy-9-(4-((ethylamino)methyl)-2-methoxybenzyl)-9H-purin-8-ol], the EC50 in assay [1] was 744 nM; in assay [2] (setting [5]) it was 0.1 to 1 nM; in assay [2] (setting [6]), 674 nM; in assay [3], 33.5 nM; in assay [4], 5.4 nM.
`CCCN(CCC)Cc1ccc(Cn2c(O)nc3c(N)nc(OCC)nc32)c(OC)c1` [Compound 125, 6-amino-9-(4-((dipropylamino)methyl)-2-methoxybenzyl)-2-ethoxy-9H-purin-8-ol]: the EC50 in assay [1] was 171 nM; in assay [2] (setting [5]), 1 to 10 nM; in assay [2] (setting [6]), 2230 nM; in assay [3], 4.3 nM; in assay [4] it was 0.5 nM.
